For one experiment, the system named is E. coli ATCC 25922. Description: MIC, E. coli ATCC 25922. Format: cell-based. The note with it: for MIC: Escherichia coli, ATCC25922, E. coli, read-out: MIC Ec.
A further experiment relates to S. aureus ATCC 13709. Nature of the experiment: MIC, S. aureus ATCC 13709. It counts as cell-based. The following applies: for MIC: Staphylococcus aureus, ATCC13709, S. aureus, read-out: MIC Sa.
[1] abbreviates: Alamar Blue read after overnight incubation at 35° C.
Setting [2] is: E. coli, Alamar Blue read after overnight incubation at 35° C.
Setting [3] is: S. aureus, Alamar Blue read after overnight incubation at 35° C.

As a reminder, the MIC is the least concentration at which growth counts as inhibited.

Molecules are shown by their SMILES. Values after ≈ are worked out from the molar mass of the structure shown. A value given as a limit tells only on which side of the number the result lay.

As to `CNc1cccc2c1[nH]c1nc(Oc3cncc(C#N)c3)cc(N3CC(N)C4(CC4)C3)c12` (stereo not drawn) [Compound 3.43], the MIC was 1 µg/mL (≈ 2.35 µM) with E. coli ATCC 25922 (setting [1]) and ≤ 0.5 µg/mL in the experiment with S. aureus ATCC 13709 (setting [1]).
For `CNc1cc(F)cc2c1[nH]c1nc(Oc3cncc(C(N)=O)c3)nc(N3CC4CC(N)C4C3)c12` (stereo not drawn) [Compound 4.236], the “MIC Ec” value against E. coli ATCC 25922 (setting [2]) is ≤0.5 µg/mL. Moreover, the “MIC Sa” value in the experiment on S. aureus ATCC 13709 (setting [3]) was ≤0.5 µg/mL.
Consider `CNc1cc(F)c(F)c2c1[nH]c1nc(Oc3cnc4ccnn4c3)nc(N3C[C@H]4C[C@@H](N)[C@H]4C3)c12` [Compound 10.28], for which the MIC Ec against E. coli ATCC 25922 (Table 18, Ec) was ≤ 0.5 µg/mL. Also, in the experiment on S. aureus ATCC 13709 (Table 18, Sa), the MIC Sa is ≤ 0.5 µg/mL.
In the case of `CNc1cc(F)cc2c1[nH]c1nc(Oc3ccc4ccnn4c3)nc(N3C[C@H]4C[C@@H]3C[C@H]4N)c12` [Compound 10.50], the MIC Ec in the experiment on E. coli ATCC 25922 (Table 18, Ec) is ≤ 0.5 µg/mL. Moreover, the MIC Sa in the experiment on S. aureus ATCC 13709 (Table 18, Sa) was ≤ 0.5 µg/mL.
Regarding `CNc1cc(F)cc2c1[nH]c1nc(Oc3cnc(C)nc3)nc(N3CC4(CCC4N)C3)c12` (stereo not drawn) [Compound 4.100], the “MIC Ec” value against E. coli ATCC 25922 (setting [2]) was ≤0.5 µg/mL. Besides, in the experiment on S. aureus ATCC 13709 (setting [3]), the “MIC Sa” value was ≤0.5 µg/mL.
As to `CNc1cc(F)cc2c1[nH]c1nc(Oc3cnc4c(c3)ncn4C)nc(N3CC4CC(N)C4C3)c12` (stereo not drawn) [Compound 4.226], in the experiment on E. coli ATCC 25922 (setting [2]), the “MIC Ec” value was 2 µg/mL (≈ 4.22 µM). Also, the “MIC Sa” value against S. aureus ATCC 13709 (setting [3]) was ≤0.5 µg/mL.
Consider `CNc1cc(F)cc2c1[nH]c1nc(Oc3cnc(C#N)c(C)c3)nc(N3CC(N)C4(CC4)C3)c12` (stereo not drawn) [Compound 4.324], for which, in the experiment with E. coli ATCC 25922 (setting [2]), the “MIC Ec” value is ≤0.5 µg/mL. The “MIC Sa” value with S. aureus ATCC 13709 (setting [3]) was ≤0.5 µg/mL.
`CNc1cccc2c1[nH]c1nc(Oc3cnc(C)nc3)cc(N3CC4C(C3)C4NCC3CC3)c12` (stereo not drawn) [Compound 3.14]: the MIC was 2 µg/mL (≈ 4.39 µM) with E. coli ATCC 25922 (setting [1]) and ≤ 0.5 µg/mL in the experiment on S. aureus ATCC 13709 (setting [1]).
`CNc1cc(F)cc2c1[nH]c1nc(Oc3cnc(NCC(O)CO)nc3)nc(N3C[C@H](N)C4(CC4)C3)c12` (stereo partly drawn) [Compound 4.407]: the “MIC Ec” value in the experiment with E. coli ATCC 25922 (setting [2]) was >16 µg/mL. The “MIC Sa” value against S. aureus ATCC 13709 (setting [3]) was determined as 2 µg/mL (≈ 3.93 µM).
For `CNc1cccc2c1[nH]c1nc(Oc3cnc(C)nc3)cc(N3CC[C@@H](NCCC#N)C3)c12` [Compound 3.10], the MIC in the experiment with E. coli ATCC 25922 (setting [1]) was > 64 µg/mL; in the experiment on S. aureus ATCC 13709 (setting [1]), 32 µg/mL (≈ 72.3 µM).
As to `CNc1cc(F)cc2c1[nH]c1nc(Oc3cncc(C#N)c3)nc(N3CC4C(N)C4C3)c12` (stereo not drawn) [Compound 4.050], the “MIC Ec” value against E. coli ATCC 25922 (setting [2]) is ≤0.5 µg/mL. Further, the “MIC Sa” value against S. aureus ATCC 13709 (setting [3]) is ≤0.5 µg/mL.
Take `CNc1cccc2c1[nH]c1nc(Sc3cnc4ccc[n+]([O-])c4c3)nc(N3CCC[C@@H](N)C3)c12` [Compound 1.34]: the figures for the MIC with E. coli ATCC 25922 (setting [1]) and in the experiment with S. aureus ATCC 13709 (setting [1]) were 4 µg/mL (≈ 8.46 µM) and 1 µg/mL (≈ 2.12 µM), respectively.
`CNc1cccc2c1[nH]c1nc(Sc3cnc4cccnc4c3)nc(N3CCC4(CC4N)C3)c12` (stereo not drawn) [Compound 1.25]: the “MIC Ec” value with E. coli ATCC 25922 (setting [2]) is 4 µg/mL (≈ 8.54 µM). Further, the MIC with S. aureus ATCC 13709 (setting [1]) was ≤ 0.5 µg/mL.
For `CNc1cc(F)cc2c1[nH]c1nc(Oc3cnc(N)nc3)nc(N3CC4CC(N)C4C3)c12` (stereo not drawn) [Compound 4.190], the “MIC Ec” value against E. coli ATCC 25922 (setting [2]) worked out at 1 µg/mL (≈ 2.3 µM). Also, the “MIC Sa” value against S. aureus ATCC 13709 (setting [3]) is ≤0.5 µg/mL.
The matching figures for `CNc1cc(F)cc2c1[nH]c1nc(Oc3ccc(C#N)nc3)nc(N3CC4(CCC4N)C3)c12` (stereo not drawn) [Compound 4.333]: ≤0.5 µg/mL and ≤0.5 µg/mL.
The matching figures for `CNc1cc(F)cc2c1[nH]c1nc(Oc3ccc4c(c3)C(=O)NC4)nc(N3CC4(CCC4N)C3)c12` (stereo not drawn) [Compound 4.270]: 2 µg/mL (≈ 4.22 µM) and ≤0.5 µg/mL.
Consider `CNc1cc(F)cc2c1[nH]c1nc(Oc3cnc(N)nc3)nc(N3CC4CNC4C3)c12` (stereo not drawn) [Compound 4.178], for which the “MIC Ec” value in the experiment with E. coli ATCC 25922 (setting [2]) is 8 µg/mL (≈ 19 µM). Further, in the experiment on S. aureus ATCC 13709 (setting [3]), the “MIC Sa” value was ≤0.5 µg/mL.
As to `CNc1cc(F)cc2c1[nH]c1nc(Oc3cnc(C)nc3)nc(N3C[C@H]4C[C@@H]3C[C@H]4N(CCO)CCO)c12` [Compound 10.115], the MIC Ec in the experiment on E. coli ATCC 25922 (Table 18, Ec) amounted to 1 µg/mL (≈ 1.91 µM). Besides, the MIC Sa in the experiment with S. aureus ATCC 13709 (Table 18, Sa) was ≤ 0.5 µg/mL.
Take `CNc1cc(F)cc2c1[nH]c1nc(Oc3cnc(C)nc3)nc(N3C4CCC3CC(N)C4)c12` (stereo not drawn) [Compound 4.091]: in the experiment on E. coli ATCC 25922 (setting [2]), the “MIC Ec” value is 1 µg/mL (≈ 2.23 µM). Also, the “MIC Sa” value in the experiment on S. aureus ATCC 13709 (setting [3]) was ≤0.5 µg/mL.
With `CNc1cc(F)cc2c1[nH]c1nc(Oc3cnc(C(C)O)nc3)nc(N3C[C@H]4C[C@@H]3[C@H](C)[C@H]4N)c12` (stereo partly drawn) [Compound 10.78], the MIC Ec in the experiment on E. coli ATCC 25922 (Table 18, Ec) amounted to 4 µg/mL (≈ 8.36 µM). Moreover, the MIC Sa in the experiment with S. aureus ATCC 13709 (Table 18, Sa) was determined as 1 µg/mL (≈ 2.09 µM).
Take `CNc1cc(F)cc2c1[nH]c1nc(Sc3cnc4cccnc4c3)nc(N3CC(N)C4(CC4)C3)c12` (stereo not drawn) [Compound 1.62]: the MIC in the experiment with E. coli ATCC 25922 (setting [1]) and in the experiment on S. aureus ATCC 13709 (setting [1]) was ≤ 0.5 µg/mL in each case.
Turning to `CNc1cc(F)cc2c1[nH]c1nc(Oc3cnc(C)nc3)nc(NCCCN)c12` [Compound 4.108], the “MIC Ec” value against E. coli ATCC 25922 (setting [2]) is >16 µg/mL. For the same compound, in the experiment on S. aureus ATCC 13709 (setting [3]), the “MIC Sa” value worked out at 4 µg/mL (≈ 10.1 µM).
Regarding `CNc1cc(F)cc2c1[nH]c1nc(Oc3cnc(C)nc3)nc(-c3ccc(F)cc3CN)c12` [Compound 4.445], the MIC was > 16 µg/mL in the experiment with E. coli ATCC 25922 (setting [1]) and 2 µg/mL (≈ 4.47 µM) in the experiment with S. aureus ATCC 13709 (setting [1]).
For `CNc1cccc2c1[nH]c1nc(Sc3cnc4cccnc4c3)nc(N3CCC4(CCNCC4)C3)c12` [Compound 1.56], the MIC in the experiment on E. coli ATCC 25922 (setting [1]) worked out at 32 µg/mL (≈ 64.4 µM); in the experiment with S. aureus ATCC 13709 (setting [1]), 4 µg/mL (≈ 8.05 µM).

These data come from patent US10865216B2, “Tricyclic Gyrase inhibitors” (MERCK SHARP & DOHME CORP., priority 2012, dated 2020).
